In patent US9932314B2, “Pyrazole compounds and their use as T-type calcium channel blockers” (IDORSIA PHARMACEUTICALS LTD, priority 2015, dated 2018):

Biological target: T1, voltage-dependent T-type calcium channel subunit alpha-1G (Cav3.2) (Homo sapiens, UniProt O95180)
T1 construct: expressed in transfected cells; host or cells: HEK293
Experiment: FLIPR calcium flux assay, HEK293 cells recombinantly expressing Cav3.2
Type: cell-based
Details: Cav3.2-channel, Fluo-4-AM, 3 min incubation, stimulation with 10 mM CaCl2
Summary of the method: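 Calcium influx was triggered by adding CaCl2 to 10 mM final, 3 min after compounds in tetraethylammonium-based buffer, pH 7.2, reached Fluo-4-AM-loaded recombinant HEK293 cells. The integrated kinetic fluorescence signal per concentration gave concentration-response curves by non-linear sigmoidal regression.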

T1 sequence (O95180 whole entry): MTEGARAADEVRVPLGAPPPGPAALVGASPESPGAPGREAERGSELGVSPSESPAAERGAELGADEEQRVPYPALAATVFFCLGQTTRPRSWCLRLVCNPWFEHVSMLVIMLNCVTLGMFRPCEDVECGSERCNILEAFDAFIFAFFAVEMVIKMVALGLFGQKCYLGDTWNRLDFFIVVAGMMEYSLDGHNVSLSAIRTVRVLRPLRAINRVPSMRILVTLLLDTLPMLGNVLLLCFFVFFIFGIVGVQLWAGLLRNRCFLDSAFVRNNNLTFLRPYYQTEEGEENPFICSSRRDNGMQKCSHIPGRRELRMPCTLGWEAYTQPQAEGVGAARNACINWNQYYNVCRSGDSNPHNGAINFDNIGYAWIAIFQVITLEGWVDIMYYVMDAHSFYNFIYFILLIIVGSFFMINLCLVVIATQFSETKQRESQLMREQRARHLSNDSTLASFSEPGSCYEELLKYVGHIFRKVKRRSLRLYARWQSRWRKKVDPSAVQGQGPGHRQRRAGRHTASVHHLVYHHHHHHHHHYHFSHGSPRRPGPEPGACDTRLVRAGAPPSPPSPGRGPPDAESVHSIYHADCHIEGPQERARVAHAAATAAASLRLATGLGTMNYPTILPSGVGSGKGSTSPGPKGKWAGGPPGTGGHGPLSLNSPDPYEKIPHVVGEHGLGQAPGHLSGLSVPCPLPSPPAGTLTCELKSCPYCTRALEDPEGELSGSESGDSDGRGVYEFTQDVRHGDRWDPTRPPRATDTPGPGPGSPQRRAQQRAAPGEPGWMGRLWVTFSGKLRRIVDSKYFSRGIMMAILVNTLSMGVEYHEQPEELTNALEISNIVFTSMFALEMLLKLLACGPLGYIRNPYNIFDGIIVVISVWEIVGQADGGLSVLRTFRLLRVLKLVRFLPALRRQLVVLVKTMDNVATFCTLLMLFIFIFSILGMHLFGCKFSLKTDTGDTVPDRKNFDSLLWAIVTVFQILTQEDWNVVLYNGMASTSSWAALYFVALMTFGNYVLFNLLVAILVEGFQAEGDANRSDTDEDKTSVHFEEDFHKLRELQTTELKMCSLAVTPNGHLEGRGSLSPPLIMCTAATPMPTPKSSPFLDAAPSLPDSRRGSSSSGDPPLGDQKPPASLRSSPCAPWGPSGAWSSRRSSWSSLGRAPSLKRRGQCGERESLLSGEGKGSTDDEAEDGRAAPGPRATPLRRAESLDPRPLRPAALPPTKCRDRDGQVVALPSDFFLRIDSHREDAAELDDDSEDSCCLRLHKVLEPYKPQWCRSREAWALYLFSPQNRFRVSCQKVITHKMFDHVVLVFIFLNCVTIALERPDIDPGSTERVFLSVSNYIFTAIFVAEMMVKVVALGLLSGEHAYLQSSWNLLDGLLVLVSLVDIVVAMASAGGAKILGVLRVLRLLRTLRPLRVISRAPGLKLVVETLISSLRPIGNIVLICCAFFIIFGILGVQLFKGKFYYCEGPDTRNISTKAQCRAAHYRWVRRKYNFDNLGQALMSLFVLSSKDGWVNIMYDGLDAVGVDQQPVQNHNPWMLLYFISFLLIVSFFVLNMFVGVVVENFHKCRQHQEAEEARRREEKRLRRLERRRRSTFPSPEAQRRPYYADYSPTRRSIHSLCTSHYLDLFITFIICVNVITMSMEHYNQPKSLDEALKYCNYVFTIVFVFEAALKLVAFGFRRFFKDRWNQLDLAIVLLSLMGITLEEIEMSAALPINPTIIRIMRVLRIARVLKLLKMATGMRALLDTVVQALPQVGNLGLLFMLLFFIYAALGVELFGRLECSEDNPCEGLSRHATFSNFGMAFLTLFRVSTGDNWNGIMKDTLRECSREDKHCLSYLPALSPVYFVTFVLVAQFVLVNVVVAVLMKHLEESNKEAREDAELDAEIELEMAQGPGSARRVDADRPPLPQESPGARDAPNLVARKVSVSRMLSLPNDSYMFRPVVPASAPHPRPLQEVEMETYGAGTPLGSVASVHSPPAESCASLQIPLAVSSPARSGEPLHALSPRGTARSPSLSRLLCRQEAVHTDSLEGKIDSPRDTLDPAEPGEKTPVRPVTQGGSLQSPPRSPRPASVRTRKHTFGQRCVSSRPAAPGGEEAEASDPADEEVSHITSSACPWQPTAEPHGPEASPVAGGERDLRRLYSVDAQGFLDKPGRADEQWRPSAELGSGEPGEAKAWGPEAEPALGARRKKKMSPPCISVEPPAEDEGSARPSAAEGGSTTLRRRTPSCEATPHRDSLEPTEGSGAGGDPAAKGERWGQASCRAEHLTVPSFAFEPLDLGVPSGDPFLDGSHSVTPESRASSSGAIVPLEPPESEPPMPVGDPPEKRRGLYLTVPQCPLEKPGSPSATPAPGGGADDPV

| SMILES | IC50 |
| --- | --- |
| N#Cc1cc(Cn2ccc(NC(=O)Cc3ccc(OCC4COC4)cc3)n2)ccc1F [Example 279, N-[1-(3-Cyano-4-fluoro-benzyl)-1H-pyrazol-3-yl]-2-[4-(oxetan-3-ylmethoxy)-phenyl]-acetamide] | 275 nM |
| Cc1cc(CC(=O)Nc2ccn(Cc3ccc(C#N)cn3)n2)cnc1OCC(F)(F)F [Example 417, N-[1-(5-Cyano-pyridin-2-ylmethyl)-1H-pyrazol-3-yl]-2-[5-methyl-6-(2,2,2-trifluoro-ethoxy)-pyridin-3-yl]-acetamide] | 37 nM |
| N#Cc1c(F)cc(Cn2ccc(NC(=O)Cc3ccc(C4(F)COC4)cc3)n2)cc1F [Example 347, N-[1-(4-Cyano-3,5-difluoro-benzyl)-1H-pyrazol-3-yl]-2-[4-(3-fluoro-oxetan-3-yl)-phenyl]-acetamide] | 85 nM |
| COC(C)c1ccc(CC(=O)Nc2ccn(Cc3ccc(F)c(F)c3)n2)cc1 (racemic) [Example 202, rac-N-[1-(3,4-Difluoro-benzyl)-1H-pyrazol-3-yl]-2-[4-(1-methoxy-ethyl)-phenyl]-acetamide] | 16 nM |
| CC(C)c1ccc(CC(=O)Nc2ccn(Cc3ccc(F)cn3)n2)cc1 [Example 106, N-[1-(5-Fluoro-pyridin-2-ylmethyl)-1H-pyrazol-3-yl]-2-(4-isopropyl-phenyl)-acetamide] | 15 nM |
| CN(CC1CC1)c1ccc(CC(=O)Nc2ccn(Cc3ccc(C#N)cn3)n2)cn1 [Example 184, N-[1-(5-Cyano-pyridin-2-ylmethyl)-1H-pyrazol-3-yl]-2-[6-(cyclopropylmethyl-methyl-amino)-pyridin-3-yl]-acetamide] | 490 nM |
| CC(C)c1ccc(CC(=O)Nc2ccn(Cc3ccc(C#N)c(Cl)n3)n2)cc1 [Example 110, N-[1-(6-Chloro-5-cyano-pyridin-2-ylmethyl)-1H-pyrazol-3-yl]-2-(4-isopropyl-phenyl)-acetamide] | 14 nM |
| O=C(Cc1ccc(N2CCCC2=O)cc1)Nc1ccn(Cc2ccc(F)cc2)n1 [Example 204, N-[1-(4-Fluoro-benzyl)-1H-pyrazol-3-yl]-2-[4-(2-oxo-pyrrolidin-1-yl)-phenyl]-acetamide] | 79 nM |
| N#Cc1ccc(Cn2ccc(NC(=O)Cc3ccc(N4CC(F)C4)nc3)n2)nc1 [Example 159, N-[1-(5-Cyano-pyridin-2-ylmethyl)-1H-pyrazol-3-yl]-2-[6-(3-fluoro-azetidin-1-yl)-pyridin-3-yl]-acetamide] | 1180 nM |
| CC(C)c1ccc(Cn2ccc(NC(=O)Cc3ccc(N(C)C)cc3)n2)cc1 [Example 17, 2-(4-Dimethylamino-phenyl)-N-[1-(4-isopropyl-benzyl)-1H-pyrazol-3-yl]-acetamide] | 12 nM |
| CC1(C)C(=O)Nc2ccc(CC(=O)Nc3ccn(Cc4ccc(F)c(F)c4)n3)cc21 [Example 228, N-[1-(3,4-Difluoro-benzyl)-1H-pyrazol-3-yl]-2-(3,3-dimethyl-2-oxo-2,3-dihydro-1H-indol-5-yl)-acetamide] | 44 nM |
| Cc1cn(C)c2cc(CC(=O)Nc3ccn(Cc4ccc(F)c(F)c4)n3)ccc12 [Example 259, N-[1-(3,4-Difluoro-benzyl)-1H-pyrazol-3-yl]-2-(1,3-dimethyl-1H-indol-6-yl)-acetamide] | 4.1 nM |
| N#Cc1cc(Cn2ccc(NC(=O)Cc3ccc(N4CCC(F)(F)C4)nc3)n2)ccc1F [Example 306, N-[1-(3-Cyano-4-fluoro-benzyl)-1H-pyrazol-3-yl]-2-[6-(3,3-difluoro-pyrrolidin-1-yl)-pyridin-3-yl]-acetamide] | 17 nM |
| CN(CC(F)F)c1ccc(CC(=O)Nc2ccn(Cc3ccc(C#N)cn3)n2)cn1 [Example 151, N-[1-(5-Cyano-pyridin-2-ylmethyl)-1H-pyrazol-3-yl]-2-{6-[(2,2-difluoro-ethyl)-methyl-amino]-pyridin-3-yl}-acetamide] | 649 nM |
| N#Cc1ccc(Cn2ccc(NC(=O)Cc3ccc(N4CC[C@@H](F)C4)nc3)n2)nc1 [Example 138, N-[1-(5-Cyano-pyridin-2-ylmethyl)-1H-pyrazol-3-yl]-2-[6-((R)-3-fluoro-pyrrolidin-1-yl)-pyridin-3-yl]-acetamide] | 756 nM |
